Laboratory results: PMC5760527, “Connexin 43 Hemichannel as a Novel Mediator of Sterile and Infectious Inflammatory Diseases” (Scientific Reports, 2018)

Key:
[1] = test system: Panx1 hemichannel permeability, macrophages; assay: Lucifer Yellow dye uptake in presence of calcium (Panx1 hemichannel permeability); format: cell-based
[2] = test system: Balb/c mice, polymicrobial sepsis (CLP); assay: CLP-induced sepsis survival; format: in vivo; settings: P5 8.0 mg/kg
Description: (§1) This study was approved and performed in accordance with the guidelines of the Institutional Animal Care and Use Committee of the Feinstein Institute for Medical Research, Manhasset, New York, USA (Animal Protocol #2008-033, Approval date: September 10, 2014). To evaluate the effect of various Cx43 mimetic peptides on sepsis lethality, a clinically relevant animal model of sepsis induced by cecal ligation and puncture (CLP) was employed. Briefly, the cecum of Balb/c mice was ligated at about 5 mm from the cecal tip, and then punctured once with a 22-gauge needle. GAP26, TAT-GAP19 or P5 peptides were administered intraperitoneally into mice at indicated doses and time points, and animal survival rates were monitored for up to 2 wks. The Kaplan-Meier method was used to compare the differences in mortality rates between groups.

[3] = test system: Cx43 protein expression, NIH 3T3 fibroblasts; assay: Cx43 protein expression, Western blotting, NIH 3T3 cells; format: cell-based; settings: prolonged incubation, data not shown
Method: The cellular levels of Cx43 and phosphor-PKR were determined by Western blotting analysis using an affinity-purified rabbit anti-Cx43 or anti-phospho-PKR (Thr^451) IgGs as previously described[9],[25],[53]. The levels of HMGB1 in the culture medium were determined by Western blotting analysis as described previously. The level of β-actin was used as a reference of total cellular proteins. Briefly, an equal volume of culture medium (conditioned by identical macrophage cell numbers) was harvested, and protein content was concentrated by ultrafiltration (with a molecular weight cutoff of 10.0 kDa), and then normalized to the same volume with a sample buffer. Proteins in equal sample volume were resolved on sodium dodecyl sulfate (SDS)-polyacrylamide gels, and transferred to polyvinylidene difluoride (PVDF) membranes. After blocking with 5% nonfat milk, the membrane was incubated with respective antibodies (anti-Cx43, 1:1000; anti-phospho-PKR, 1:1000; anti-HMGB1, 1:1,000; anti-β-actin. 1:5,000) overnight. Subsequently, the membrane was incubated with the appropriate secondary antibody, and the immunoreactive bands were visualized by chemiluminescence techniques.

[4] = test system: Cx43 gap junctions, NIH 3T3 fibroblasts; assay: Cx43 gap junction formation, immunostaining; format: cell-based; settings: P5 20 µM, overnight
Method: Primary peritoneal macrophages were isolated from Balb/c mice, stimulated with LPS or SAA for 6 h, and immunostained with an affinity-purified rabbit anti-Cx43 IgGs (1:1,000 dilution at 4 °C) as previously described. Non-immune NIH 3T3 cells were grown on glass coverslips to confluency to allow formation of gap junctional channels. The growth medium was changed to DMEM before an overnight incubation with P5 (20 µM). Cells were then fixed with 2% paraformaldehyde, incubated for 16 hr with a well-characterized affinity-purified rabbit anti-Cx43 IgGs as previously described. After extensive washing, cells were incubated with donkey anti-rabbit Alexa 488 (Invitrogen) for 1 hr at room temperature. The coverslips were subsequently mounted on glass slides using anti-fade medium and examined using an epi-fluorescence microscope.

[5] = test system: LPS-induced trypan blue uptake, RAW 264.7 cells; assay: Trypan blue uptake assay; format: cell-based, murine; settings: P5 10 µg/ml, LPS 1.0 µg/ml, 16 h, 0.08% trypan blue, P < 0.05 versus +LPS
Method: Specifically, murine macrophage-like RAW 264.7 cells were stimulated with LPS (1.0 µg/ml) in the absence or presence of P5 peptide (10 µg/ml) for 16 h, and the culture medium was then replaced with 1 × PBS containing 0.08% trypan blue (Cat. # 15250-061, Invitrogen). Phase contrast images of multiple fields were randomly captured, and the percentage of trypan blue-stained cells was calculated.

[6] = test system: HMGB1 release, RAW 264.7 cells; assay: HMGB1 release, Western blotting; format: cell-based, murine; settings: LPS 0.5 µg/ml, 16 h, P < 0.05 versus +LPS
[7] = test system: cytokines and chemokines, RAW 264.7 cells; assay: Cytokine antibody array; format: cell-based, murine; settings: P5 10 μM, LPS 16 h, 62-cytokine antibody array
Method: Murine Cytokine Antibody Arrays (Cat. No. M0308003, RayBiotech Inc., Norcross, GA, USA), which respectively detect 62 cytokines on one membrane, were used to determine cytokine levels in macrophage-conditioned culture medium as previously described[51],[54]. Briefly, the membranes were sequentially incubated with equal volumes cell-conditioned culture medium (200 μl), primary biotin-conjugated antibodies, and horseradish peroxidase–conjugated streptavidin.

[8] = test system: TUNEL-positive cells, lungs of septic mice (CLP); assay: TUNEL staining of septic lungs; format: in vivo, Balb/c mice; settings: lungs at 24 h post CLP, at protective doses; 5–8 fields; P < 0.05 versus CLP
Description: as §1
Upper and lower lobe lung tissues were collected at 24 h post CLP, fixed in 4% paraformaldehyde, embedded in paraffin, and cut into 5 µm thick sections. […] Five to eight fields of view were randomly selected for each tissue section, and the number of TUNEL-positive green cells was expressed as an average of percentage of total DAPI-positive blue cells.

Cx43 EL1 peptide = biological target: T1, Cx43 EL1 peptide (Homo sapiens, UniProt P17302); assay: Surface Plasmon Resonance, Cx43 EL1 peptide; format: binding; settings: synthetic full-length EL1 peptide, data not shown
T1 construct: synthetic full-length Cx43 EL1 or EL2 peptide as judged by the Surface Plasmon Resonance Analysis

Cx43 EL2 peptide = assay: Surface Plasmon Resonance, Cx43 EL2 peptide; format: binding; settings: synthetic full-length EL2 peptide, data not shown

T1 sequence (P17302 45-76 limits assumed): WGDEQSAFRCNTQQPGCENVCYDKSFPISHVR

ENVCYD [P5, cysteine-containing Cx43 EL1 mimetic hexamer peptide, P5 (ENVCYD)]
LY uptake in calcium-containing medium [1]: did not alter macrophage LY uptake in calcium-containing medium | animal survival rates (in words) ([2]; +2 h and +24 h after onset of sepsis, P < 0.05 versus CLP + Saline): significant increase in animal survival rates | animal survival ([2]; i.p., +2, +24 h post CLP, up to two weeks, saline 30%, P < 0.05, Kaplan-Meier): 85% | Cx43 protein expression [3]: did not alter Cx43 protein expression | GJ formation (Cx43 punctate immunostaining) [4]: did not alter the punctate immunostaining profile of Cx43 | LPS-induced trypan blue uptake [5]: significantly suppressed the LPS-induced elevation of trypan blue uptake | inhibition of LPS-induced HMGB1 release [6]: significantly inhibited by P5 in a dose-dependent fashion | other cytokines and chemokines [7]: did not affect | TUNEL-positive cells in septic lungs [8]: significantly reduced the number of TUNEL-positive cells in septic lungs | binding to Cx43 EL1 peptide (Cx43 EL1 peptide): did not find evidence of P5 interacting | binding to Cx43 EL2 peptide (Cx43 EL2 peptide): did not find evidence of P5 interacting
